In US20240335385A1, “IONIZABLE AMINE LIPIDS AND LIPID NANOPARTICLES” (Beam Therapeutics Inc., priority 2021, published 2024):

Tests used:
[1] = LNP hydrodynamic diameter and polydispersity index by dynamic light scattering (DLS); format: physicochemical; details: LNP of 47.5% Ionizable Lipid:40% cholesterol:2.5% PEG-2000 DMG:10% DPSC, N/P ratio 4-8
Procedure: (§1) LNPs were prepared with 47.5% Ionizable Lipid (e.g., a compound provided herein):40% cholesterol:2.5% PEG-2000 DMG:10% DPSC and an N/P ratio range of 4-8. LNPs were formed by microfluidic mixing of the lipid and NA solutions using a Precision Nanosystems NanoAssemblr Spark or Benchtop series Instruments, according to the manufacturer's protocol. A ratio of aqueous to organic solvent of approximately 2:1 or 3:1 was maintained during mixing using differential flow rates. After mixing, LNPs were collected, diluted in phosphate buffer saline (PBS) or Tris-buffered saline (TBS) (approximately 1:1 v/v). Further buffer exchange was conducted using dialysis in PBS or TBS at 4° C. for 4 to 24 hours against a 20 kDa filter. After this initial dialysis, each individual LNP preparation was characterized via dynamic light scattering (DLS) to measure the size (e.g., diameter) and polydispersity. LNPs falling within specific diameter and polydispersity ranges were pooled, and further dialyzed against PBS or TBS at 4° C. for 1 to 4 hours against a 100 kDa dialysis cassette. After the second dialysis, LNPs were sterile filtered using 0.22 μm filter and stored at 4° C. for further use.
LNP hydrodynamic diameter and polydispersity index (PDI) were measured using high throughput dynamic light scattering (DLS) (Stunner, Unchained Labs). LNPs were diluted 1×TBS or PBS to an appropriate concentration and analyzed.

[2] = RNA encapsulation efficiency of LNPs by Ribogreen assay; format: physicochemical; details: LNP of 47.5% Ionizable Lipid:40% cholesterol:2.5% PEG-2000 DMG:10% DPSC, N/P ratio 4-8
Procedure: as §1
RNA concentration and encapsulation efficiency were determined by Ribogreen assay (BioTek Synergy LX plate reader).

Row | Compound | Mean Diameter (nm) [1] [nm] | Mean PDI [1] | Mean Encapsulation Efficiency (%) [2] [%]
1 | CCCCC/C=C\C/C=C\CCCCCCCC(=O)OCCC(CCOC(=O)CCC(OCCCCCCCC)OCCCCCCCC)OC(=O)CCCN1CCCC1 (stereo not drawn) [Example 7-15, 5-((4,4-bis(octyloxy)butanoyl)oxy)-3-((4-(pyrrolidin-1-yl)butanoyl)oxy)pentyl (9Z,12Z)-octadeca-9,12-dienoate] | 80.8 | 0.16 | 87.0
2 | CC/C=C\CCCCOC(CCC(=O)OCCC(CCOC(=O)CCC(OCCCC/C=C\CC)OCCCC/C=C\CC)OC(=O)OCCCN(CC)CC)OCCCC/C=C\CC [Example 7-7, 3-(((3-(diethylamino)propoxy)carbonyl)oxy)pentane-1,5-diyl bis(4,4-bis(((Z)-oct-5-en-1-yl)oxy)butanoate)] | 99.7 | 0.17 | 91.3
3 | CCCCCCCCOC(CCC(=O)OCCC(CCOC(=O)CCC(OCCCCCCCC)OCCCCCCCC)OC(=O)OCCCN(C)CC)OCCCCCCCC [Example 7-18, 3-(((3-(ethyl(methyl)amino)propoxy)carbonyl)oxy)pentane-1,5-diyl bis(4,4-bis(octyloxy)butanoate)] | 76.7 | 0.16 | 90.0
4 | CCCCC/C=C\C/C=C\CCCCCCCC(=O)OCCC(CCOC(=O)CCC(OCCCCCCCC)OCCCCCCCC)OC(=O)OCCCN(C)C (stereo not drawn) [Example 7-14, 5-((4,4-bis(octyloxy)butanoyl)oxy)-3-(((3-(dimethylamino)propoxy)carbonyl)oxy)pentyl (9Z,12Z)-octadeca-9,12-dienoate] | 84.3 | 0.18 | 87.2
5 | CCCCC/C=C\C/C=C\CCCCCCCC(=O)OCCC(CCOC(=O)CCC(OCCCCCCCC)OCCCCCCCC)OC(=O)OCCCN(C)CC (stereo not drawn) [Example 7-13, 5-((4,4-bis(octyloxy)butanoyl)oxy)-3-(((3-(ethyl(methyl)amino)propoxy)carbonyl)oxy)pentyl (9Z,12Z)-octadeca-9,12-dienoate] | 86.0 | 0.15 | 86.1
6 | CC/C=C\CCCCOC(CCC(=O)OCCC(CCOC(=O)CCCCCCC/C=C\C/C=C\CCCCC)OC(=O)OCCCN(CC)CC)OCCCC/C=C\CC (stereo not drawn) [Example 7-2, 5-((4,4-bis(((Z)-oct-5-en-1-yl)oxy)butanoyl)oxy)-3-(((3-(diethylamino)propoxy)carbonyl)oxy)pentyl (9Z,12Z)-octadeca-9,12-dienoate] | 96.4 | 0.12 | 87.2
7 | CCCCCCCCOC(CCC(=O)OCCC(CCOC(=O)CCC(OCCCCCCCC)OCCCCCCCC)OC(=O)OCC1CCCN(CC)C1)OCCCCCCCC (stereo not drawn) [Example 7-16, 3-((((1-ethylpiperidin-3-yl)methoxy)carbonyl)oxy)pentane-1,5-diyl bis(4,4-bis(octyloxy)butanoate)] | 80.0 | 0.16 | 72.6
8 | CC/C=C\CCCCOC(CCC(=O)OCCC(CCOC(=O)CCC(OCCCC/C=C\CC)OCCCC/C=C\CC)OC(=O)OCCCN(C)CC)OCCCC/C=C\CC [Example 7-8, 3-(((3-(ethyl(methyl)amino)propoxy)carbonyl)oxy)pentane-1,5-diyl bis(4,4-bis(((Z)-oct-5-en-1-yl)oxy)butanoate)] | 110.4 | 0.09 | 89.9
9 | CC/C=C\CCCCOC(CCC(=O)OCCC(CCOC(=O)CCC(OCCCC/C=C\CC)OCCCC/C=C\CC)OC(=O)OCCCN(C)C)OCCCC/C=C\CC [Example 7-9, 3-(((3-(dimethylamino)propoxy)carbonyl)oxy)pentane-1,5-diyl bis(4,4-bis(((Z)-oct-5-en-1-yl)oxy)butanoate)] | 92.9 | 0.13 | 89.0
